According to ChEMBL document CHEMBL5247641, “Discovery of Potent DYRK2 Inhibitors with High Selectivity, Great Solubility, and Excellent Safety Properties for the Treatment of Prostate Cancer” (J Med Chem, 2023):
Active and inactive are the calls of the source. The calls are words filed in the database; no cut-off is given here.

Experiments:
CWR22R [1] = test: Antiproliferative activity against human 22Rv1 cells assessed as inhibition of cell proliferation incubated for 3 days by CCK-8 assay; type: functional, cell-based; settings: 22Rv1, 72 h
CWR22R [2] = test: Antiproliferative activity against human 22Rv1 cells assessed as cell growth inhibition at 2 to 8 uM incubated for 5 days by microplate reader analysis; type: functional, cell-based; settings: dose 2-8 µM, time 5.0 day
CWR22R [3] = test: Antiproliferative activity against human 22Rv1 cells assessed as inhibition of clone formation at 1 to 8 uM incubated for 2 weeks by crystal violet staining based assay; type: functional, cell-based; settings: dose 1-8 µM
DU-145 [4] = test: Induction of cell cycle arrest in human DU-145 cells assessed as accumulation of cells at G1 phase at 1 uM incubated for 24 hrs by propidium iodide based flow cytometric analysis (Rvb= 53.46%); type: functional
DU-145 [5] = test: Induction of cell cycle arrest in human DU-145 cells assessed as accumulation of cells at G1 phase at 2 uM incubated for 24 hrs by propidium iodide based flow cytometric analysis (Rvb= 53.46%); type: functional
DU-145 [6] = test: Induction of cell cycle arrest in human DU-145 cells assessed as accumulation of cells at G1 phase at 4 uM incubated for 24 hrs by propidium iodide based flow cytometric analysis (Rvb= 53.46%); type: functional
DU-145 [7] = test: Induction of cell cycle arrest in human DU-145 cells assessed as accumulation of cells at S phase at 1 uM incubated for 24 hrs by propidium iodide based flow cytometric analysis (Rvb= 29.02%); type: functional
CWR22R [8] = test: Induction of cell cycle arrest in human 22Rv1 cells assessed as accumulation of cells at G1 phase at 1 uM incubated for 24 hrs by propidium iodide based flow cytometric analysis (Rvb= 55.28%); type: functional
CWR22R [9] = test: Induction of cell cycle arrest in human 22Rv1 cells assessed as accumulation of cells at S phase at 4 uM incubated for 24 hrs by propidium iodide based flow cytometric analysis (Rvb=20.51 %); type: functional
CWR22R [10] = test: Induction of cell cycle arrest in human 22Rv1 cells assessed as accumulation of cells at G2 phase at 1 uM incubated for 24 hrs by propidium iodide based flow cytometric analysis (Rvb=24.21 %); type: functional
DU-145 [11] = test: Induction of apoptosis in human DU-145 cells assessed as apoptotis rate at 4 uM incubated for 24 hrs by Annexin V-FITC and PI staining based flow cytometry (Rvb= 4.36%); type: functional
DU-145 [12] = test: Induction of apoptosis in human DU-145 cells assessed as apoptotis rate at 8 uM incubated for 24 hrs by Annexin V-FITC and PI staining based flow cytometry (Rvb= 4.36%); type: functional
[13] = target: T1, Dual specificity tyrosine-phosphorylation-regulated kinase 2 (Homo sapiens) (UniProt Q92630); test: Inhibition of DYRK2 in human 22Rv1 cells assessed as reduction in 4E-BP1 phosphorylation at 2 to 8 uM incubated for 24 hrs by Western blot analysis; type: cell-based; settings: dose 2-8 µM
T1 sequence (whole entry): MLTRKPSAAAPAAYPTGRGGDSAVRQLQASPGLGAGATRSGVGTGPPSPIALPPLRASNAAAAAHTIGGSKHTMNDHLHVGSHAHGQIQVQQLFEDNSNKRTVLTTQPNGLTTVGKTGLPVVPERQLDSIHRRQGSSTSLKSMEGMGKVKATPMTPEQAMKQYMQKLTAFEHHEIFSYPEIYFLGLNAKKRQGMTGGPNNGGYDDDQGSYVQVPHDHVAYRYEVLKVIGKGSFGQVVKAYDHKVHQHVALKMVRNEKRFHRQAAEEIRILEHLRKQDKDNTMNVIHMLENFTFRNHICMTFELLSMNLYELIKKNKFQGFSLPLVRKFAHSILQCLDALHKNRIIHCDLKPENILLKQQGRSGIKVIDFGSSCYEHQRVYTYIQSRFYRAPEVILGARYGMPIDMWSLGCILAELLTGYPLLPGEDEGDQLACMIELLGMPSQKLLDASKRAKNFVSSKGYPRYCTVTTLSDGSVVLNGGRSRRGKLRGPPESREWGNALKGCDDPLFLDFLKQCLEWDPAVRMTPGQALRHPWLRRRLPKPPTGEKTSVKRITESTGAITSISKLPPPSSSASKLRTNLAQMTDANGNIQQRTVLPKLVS

DU-145 [14] = test: Antiproliferative activity against human DU-145 cells assessed as reduction in c-Myc expression level at 2 to 8 uM incubated for 24 hrs by Western blot analysis; type: functional, cell-based; settings: dose 2-8 µM
CWR22R [15] = test: Antiproliferative activity against human 22Rv1 cells assessed as reduction in c-Myc expression level at 2 to 8 uM incubated for 24 hrs by Western blot analysis; type: functional, cell-based; settings: dose 2-8 µM
CWR22R [16] = test: Antiproliferative activity against human 22Rv1 cells assessed as increase in p27 expression level at 2 to 8 uM incubated for 24 hrs by Western blot analysis; type: functional, cell-based; settings: dose 2-8 µM
DU-145 [17] = test: Induction of apoptosis in human DU-145 cells assessed as increase in cleaved PARP level at 2 to 8 uM incubated for 24 hrs by Western blot analysis; type: functional, cell-based; settings: dose 2-8 µM
CWR22R [18] = test: Induction of apoptosis in human 22Rv1 cells assessed as increase in p53 level at 2 to 8 uM incubated for 24 hrs by Western blot analysis; type: functional, cell-based; settings: dose 2-8 µM
[19] = Metabolic stability in human liver microsomes assessed as half life in presence of NADPH incubated up to 60 mins by LC-MS/MS analysis; type: ADME, Microsome
[20] = Metabolic stability in human liver microsomes assessed as intrinsic clearance in presence of NADPH incubated up to 60 mins by LC-MS/MS analysis; type: ADME, Microsome; settings: read-out: CLH
[21] = Acute toxicity in ICR mouse assessed as change in lung weight at 1000 to 10000 mg/kg,po and measured after 14 days; type: organism-based; settings: in vivo, 336 h, dose 1000-10000 mg/kg, time 14 day
[22] = Acute toxicity in ICR mouse assessed as appearance of lesions in heart at 5000 to 10000 mg/kg,po and measured after 14 days by H and E staining based microscopic analysis; type: organism-based; settings: in vivo, 336 h, dose 5000-10000 mg/kg, time 14 day
[23] = Acute toxicity in ICR mouse assessed as appearance of lesions in liver at 5000 to 10000 mg/kg,po and measured after 14 days by H and E staining based microscopic analysis; type: organism-based; settings: in vivo, 336 h, dose 5000-10000 mg/kg, time 14 day
[24] = Acute toxicity in ICR mouse assessed as appearance of lesions in spleen at 5000 to 10000 mg/kg,po and measured after 14 days by H and E staining based microscopic analysis; type: organism-based; settings: in vivo, 336 h, dose 5000-10000 mg/kg, time 14 day
DU-145 [25] = test: Antitumor activity against human DU-145 xenografted in BALB/c nude mouse assessed as tumor growth inhibition at 100 mg/kg,po qd for 21 days; type: functional, organism-based; settings: time 21.0 day
DU-145 [26] = test: Antitumor activity against human DU-145 xenografted in BALB/c nude mouse as inhibition of tumor cell proliferation at 100 to 200 mg/kg,po administrated once daily for 21 days by Ki67 staining based microscopic analysis; type: functional, organism-based; settings: dose 100-200 mg/kg, time 21.0 day
DU-145 [27] = test: Antitumor activity against human DU-145 xenografted in BALB/c nude mouse as downregulation of c-MYC level in tumor at 100 to 200 mg/kg,po administrated once daily for 21 days by Western blot analysis; type: functional, organism-based; settings: dose 100-200 mg/kg, time 21.0 day

With `Cl.O=C(c1ccc(Nc2ncc(F)c(-c3ccc4scnc4c3)n2)nc1)N1CCNCC1` the IC50 (CWR22R [1]) was 2560 nM, the Activity (CWR22R [2]) was “Active” and the Activity (CWR22R [3]) was “Active”. The Activity (DU-145 [4]) was 54.77%, the Activity (DU-145 [5]) was 61.07% and the Activity (DU-145 [6]) was 68.51%. For the same compound, the Activity (DU-145 [7]) was 28.05%, the Activity (CWR22R [8]) was 60.51% and the Activity (CWR22R [9]) was 13.85%. For the same compound, the Activity (CWR22R [10]) was 23.01%, the Activity (DU-145 [11]) was 7.86% and the Activity (DU-145 [12]) was 11.98%. For the same compound, the inhibition [13] was “Active”, the Activity (DU-145 [14]) was “Active” and the Activity (CWR22R [15]) was “Active”. For the same compound, the Activity (CWR22R [16]) was “Active”, the Activity (DU-145 [17]) was “Active” and the Activity (CWR22R [18]) was “Active”. For the same compound, the half-life [19] was 1.3 h, the CLint scaled [20] was 16 mL/min/kg and the Activity [21] was “Non-Toxic”. For the same compound, the Activity [22] was “Non-Toxic”, the Activity [23] was “Non-Toxic” and the Activity [24] was “Non-Toxic”. For the same compound, the Activity (DU-145 [25]) was “Active”, the Activity (DU-145 [26]) was “Active” and the Activity (DU-145 [27]) was “Active”.
